The target of one series is T1, CB1 receptor (Homo sapiens, UniProt P21554).
T1 construct: expressed in transfected cells
As to the kind of experiment: [35S]-GTPγS binding assay, inhibition of CP55940 (EC80) stimulated activity in membranes of cells stably transfected with the CB1 gene. The class given is biochemical. How it is done: 10 μg of membranes prepared from cells stably transfected with the CB1 gene were suspended in 200 μl of 100 mM NaCl, 5 mM MgCl2, 1 mM EDTA, 50 mM HEPES (pH 7.4), 1 mM DTT, 0.1% BSA and 100 μM GDP. To this was added an EC80 concentration of agonist (CP55940), the required concentration of test compound and 0.1 μCi [^35S]-GTPγS. The reaction was allowed to proceed at 30° C. for 45 min. Samples were then transferred on to GF/B filters using a cell harvester and washed with wash buffer (50 mM Tris (pH 7.4), 5 mM MgCl2, 50 mM NaCl). Filters were then covered with scintilant and counted for the amount of [^35S]-GTPγS retained by the filter.
Activity is measured in the absence of all ligands (minimum activity) or in the presence of an EC80 concentration of CP55940 (maximum activity). These activities are set as 0% and 100% activity respectively. At various concentrations of novel ligand, activity is calculated as a percentage of the maximum activity and plotted. The data are fitted using the equation y=A+((B−A)/1+((C/x)ÚD)) and the IC50 value determined as the concentration required to give half maximal inhibition of GTPγS binding under the conditions used.
For orientation: GTPγS resists hydrolysis and so accumulates on activated G proteins.

Series [1] in a line: Solubility in dimethyl sulfoxide. The note with it: organic solvent dimethyl sulfoxide. The series is classed as physicochemical. From the text: The compounds of the present invention have improved solubility in organic solvents compared to compounds in the prior art. […] It would be expected that this increase in solubility in organic solvents would lead to improvements in bioavailability and ease of manufacture and formulation.

The mark [2] stands for this setting: half maximal inhibition of GTPγS binding, EC80 concentration of agonist CP55940, 30° C. 45 min, read-out: IC50.

Read-outs that look alike come from different tables or passages of the source.

T1 sequence (P21554 whole entry): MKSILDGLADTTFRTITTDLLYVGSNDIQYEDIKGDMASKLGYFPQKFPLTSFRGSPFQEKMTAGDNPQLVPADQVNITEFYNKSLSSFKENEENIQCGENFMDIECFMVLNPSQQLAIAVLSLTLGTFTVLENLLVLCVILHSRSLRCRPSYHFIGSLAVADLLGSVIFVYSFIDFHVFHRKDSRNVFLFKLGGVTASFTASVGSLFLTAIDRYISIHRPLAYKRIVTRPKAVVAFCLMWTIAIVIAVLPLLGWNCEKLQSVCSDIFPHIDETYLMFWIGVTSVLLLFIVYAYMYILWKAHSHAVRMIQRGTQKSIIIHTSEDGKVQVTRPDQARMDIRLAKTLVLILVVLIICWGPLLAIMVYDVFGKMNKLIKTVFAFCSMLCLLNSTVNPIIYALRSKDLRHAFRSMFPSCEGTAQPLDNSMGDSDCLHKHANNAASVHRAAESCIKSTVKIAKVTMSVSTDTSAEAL

Usually IC50 stands for the midpoint of a concentration-inhibition curve. Regarding `Cc1c2c(n(-c3ccc(Cl)cc3Cl)c1-c1ccc(CN3CC(F)(F)C3)cc1)CCN(N1CCCCC1)C2=O` [Example 2, 1-(2,4-dichlorophenyl)-2-{4-[(3,3-difluoroazetidin-1-yl)methyl]phenyl}-3-methyl-5-piperidin-1-yl-1,5,6,7-tetrahydro-4H-pyrrolo[3,2-c]pyridin-4-one], the IC50 at CB1 receptor (setting [2]) stood at 7.5 nM. `CCC/C=C/c1ccc(-c2c(C)c3c(n2-c2ccc(Cl)cc2Cl)CCN(N2CCCCC2)C3=O)cc1` [Example 5, 1-(2,4-dichlorophenyl)-3-methyl-2-{4-[pent-1-en-1-yl]phenyl}-5-piperidin-1-yl-1,5,6,7-tetrahydro-4H-pyrrolo[3,2-c]pyridin-4-one]: the IC50 at CB1 receptor (setting [2]) is 2.1 nM. Consider `Cc1c2c(n(-c3ccc(Cl)cc3Cl)c1-c1ccc(Cl)cc1)CCN(N1CCCCC1)C2=O` [Example 19 of WO03/027114, 2-(4-chlorophenyl)-1-(2,4-dichlorophenyl)-3-methyl-5-(1-piperidinyl)-1,5,6,7-tetrahydro-4H-pyrrolo-[3,2-c]pyridin-4-one], for which, in series [1], the “solubility in dimethyl sulfoxide” value is given as “insoluble”.

With `Cc1c2c(n(-c3ccc(Cl)cc3Cl)c1-c1ccc(/C=C/CCC(F)(F)F)cc1)CCN(N1CCCCC1)C2=O` [Example 3, 1-(2,4-dichlorophenyl)-3-methyl-5-piperidin-1-yl-2-{4-[5,5,5-trifluoropent-1-en-1-yl]phenyl}-1,5,6,7-tetrahydro-4H-pyrrolo[3,2-c]pyridin-4-one], the IC50 on CB1 receptor (setting [2]) came to 5 nM. Turning to `Cc1c2c(n(-c3ccc(Cl)cc3Cl)c1-c1ccc(CCCCC(F)(F)F)cc1)CCN(N1CCCCC1)C2=O` [Example 4, 1-(2,4-dichlorophenyl)-3-methyl-5-piperidin-1-yl-2-[4-(5,5,5-trifluoropentyl)phenyl]-1,5,6,7-tetrahydro-4H-pyrrolo[3,2-c]pyridin-4-one], at CB1 receptor (setting [2]), the half-maximal inhibitory concentration (IC50) amounted to 2.5 nM. With `Cc1c2c(n(-c3ccc(Cl)cc3Cl)c1-c1ccc(CN3CCC(F)(F)C3)cc1)CCN(N1CCCCC1)C2=O` [Example 1, 1-(2,4-dichlorophenyl)-2-{4-[(3,3-difluoropyrrolidin-1-yl)methyl]phenyl}-3-methyl-5-piperidin-1-yl-1,5,6,7-tetrahydro-4H-pyrrolo[3,2-c]pyridin-4-one], the IC50 at CB1 receptor (setting [2]) stood at 5.1 nM. On to `CCCCCc1ccc(-c2c(C)c3c(n2-c2ccc(Cl)cc2Cl)CCN(N2CCCCC2)C3=O)cc1` [Example 6, 1-(2,4-dichlorophenyl)-3-methyl-2-(4-pentylphenyl)-5-piperidin-1-yl-1,5,6,7-tetrahydro-4H-pyrrolo[3,2-c]pyridin-4-one], for which the IC50 at CB1 receptor is 2.1 nM.

(Values after patent US20080262026A1, “Therapeutic Agents 684” (AstraZeneca AB, priority 2007, published 2008).)
